Patent US20230372364A1, “METHOD OF TREATING GABA MEDIATED DISORDERS” (Eliem Therapeutics (UK) Ltd, priority 2020, published 2023)

Columns and labels:
[1] = tested on: dogs; experiment: Repeat-dose toxicity up to four weeks, dogs; type: in vivo, dog; conditions: 28-day repeat dose
Experimental: (§1) The no-observed-adverse-effect-level doses were 7.5/mg/kg/day and 6 mg/kg/day in rats and dogs, respectively.
(§2) Justification for Dose—Based on the nonclinical toxicology data, there is not an unreasonable risk of adverse effects. Using the FDA guidance “Estimating the Maximum Safe Starting Dose in Initial Clinical Trials for Therapeutics in Adult Healthy Volunteers” (July, 2005), the calculated human equivalent dose would be 1/2 mg/kg/day or 3/24 mg/kg/day, respectively, based on the 28-day rat no-observed-adverse-effect-level dose of 7.5 mg/kg/day or the 28-day dog no-observed-adverse-effect-level dose of 6 mg/kg/day, respectively. For both species the no-observed-adverse-effect-level dose was the highest dose tested. For a 60 kg participant, this would result in a maximum safe starting dose of (human equivalent dose/10) of 7.2 mg/day or 19/6 mg/day. The starting doses in this Phase 1 study are 5 mg, equivalent to […] for a 60 kg participant. […] These anticipated Cmax and AUC values are ˜80- and 50-fold lower, respectively, than that observed at the no-observed-adverse-effect-level dose in dogs.

[2] = tested on: rats; experiment: Sleep states by electroencephalogram (EEG) in rats; type: in vivo, rat
Experimental: The effect of CV-10155 on various sleep states was analyzed in rats. Rats were given various doses of CV-10155, and sleep states were analyzed by electroencephalogram (EEG).

[3] = biological target: kappa opioid receptor (Homo sapiens, UniProt P41145); experiment: Activity at the kappa opioid receptor; conditions: previously shown
Description: (§3) The compound of Formula (I) is believed to have binding affinity at the GABA-gated Cl-channel, the kappa opioid receptor, the 5-HT2A receptor, and the androgen receptor. The compound of Formula (I) has previously shown activity at all 18 GABAA receptor channels and the kappa opioid receptor. The compound of Formula (I) had previously shown no activity at the 5-HT2A receptor. Activity at the androgen receptor is has not yet been well studied.

[4] = biological target: α4β3δ Extra synaptic receptors (GABAA) (Homo sapiens, UniProt P28472+P48169); experiment: GABAA receptor potency and efficacy (EC50, Emax), α4β3δ; type: cell-based
[5] = Single ascending oral dose pharmacokinetics in humans; type: in vivo; conditions: human
Experimental: The pharmacokinetic properties of CV-10155 in humans were analyzed. Subjects were given a single oral dose of CV-10155, and plasma concentrations were measured at various time points. Various dosages were given to fasting subjects, and 30 mg dose was given to a subjects in a fed state.
FIG. 15 is a graph of the average plasma concentration of CV-10155 following oral administration to humans. Purple circles represent 5 mg, fasted; green diamonds represent 15 mg, fasted; red squares represent 30 mg fasted; blue triangles represent 30 mg, fed; purple crosses represent 60 mg, fasted; teal 5-pointed stars represent 90 mg, fasted; olive 6-pointed stars represent 135 mg, fasted; and brown 10-pointed stars represent 200 mg fasted.
FIG. 16 is a graph of the average plasma concentration of CV-10155 following oral administration of a 30 mg dose to humans. Blue triangles represent fasted; and red circles represent fed.
The pharmacokinetic properties of CV-10155 and Sage-217 in humans were compared. The day 7 from subjects given either 60 mg CV-10155 in the morning in a fasted state or 30 mg Sage-217 were analyzed. Results from multiple ascending dose studies are shown in Table 10, and results from single ascending dose studies are shown in Table 11.

[6] = biological target: 5-HT2A receptor (Homo sapiens, UniProt P28223); experiment: Activity at the 5-HT2A receptor; conditions: previously shown
Description: as §3

[7] = tested on: human subjects; experiment: Single ascending oral dose safety and tolerability in humans; type: in vivo
[8] = Human equivalent dose and allometric scaling of anticipated human exposure; conditions: 60 kg participant
Experimental: as §2

[9] = tested on: cardiovascular or respiratory function; experiment: In vivo safety pharmacology studies
Experimental: as §1

[10] = Pharmacokinetic parameters in preclinical rodent studies; type: in vivo; design: Oral BA / ½ life: unit not given here
Experimental: The pharmacokinetic parameters of CV-10155 in preclinical studies on rodent models of seizure, anxiety, depression and EEG biomarker were analyzed.

[11] = 60 mg once daily for seven days, pharmacokinetics in humans (MAD); conditions: human
[12] = Further pharmacokinetic analysis of Phase 1 human dosing exposure studies; type: in vivo
[13] = tested on: rats; experiment: Repeat-dose toxicity up to four weeks, rats; type: in vivo, rat
Experimental: as §1, §2

[14] = In vitro genetic toxicology studies; conditions: two in vitro studies
[15] = 1 mg/kg (minimal effective dose), male and female subjects
[16] = 3 mg/kg, male and female subjects
[17] = 10 mg/kg, male and female subjects

α4β3δ Extra synaptic receptors (GABAA), sequence (P48169 36-554): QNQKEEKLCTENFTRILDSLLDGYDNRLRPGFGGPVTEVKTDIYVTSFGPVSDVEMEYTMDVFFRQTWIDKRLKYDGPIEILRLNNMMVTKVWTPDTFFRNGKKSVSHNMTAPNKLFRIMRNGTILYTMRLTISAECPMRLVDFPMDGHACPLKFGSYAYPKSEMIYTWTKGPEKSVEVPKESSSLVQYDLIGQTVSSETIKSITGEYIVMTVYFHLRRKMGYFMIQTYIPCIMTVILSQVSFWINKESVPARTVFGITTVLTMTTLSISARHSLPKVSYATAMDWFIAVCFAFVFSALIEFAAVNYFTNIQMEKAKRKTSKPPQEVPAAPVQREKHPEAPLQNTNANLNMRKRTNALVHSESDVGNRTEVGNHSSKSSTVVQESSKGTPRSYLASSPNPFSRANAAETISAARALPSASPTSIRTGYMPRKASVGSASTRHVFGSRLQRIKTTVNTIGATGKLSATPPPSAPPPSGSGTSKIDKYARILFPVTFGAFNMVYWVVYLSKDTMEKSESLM
α4β3δ Extra synaptic receptors (GABAA), sequence (P28472 26-473): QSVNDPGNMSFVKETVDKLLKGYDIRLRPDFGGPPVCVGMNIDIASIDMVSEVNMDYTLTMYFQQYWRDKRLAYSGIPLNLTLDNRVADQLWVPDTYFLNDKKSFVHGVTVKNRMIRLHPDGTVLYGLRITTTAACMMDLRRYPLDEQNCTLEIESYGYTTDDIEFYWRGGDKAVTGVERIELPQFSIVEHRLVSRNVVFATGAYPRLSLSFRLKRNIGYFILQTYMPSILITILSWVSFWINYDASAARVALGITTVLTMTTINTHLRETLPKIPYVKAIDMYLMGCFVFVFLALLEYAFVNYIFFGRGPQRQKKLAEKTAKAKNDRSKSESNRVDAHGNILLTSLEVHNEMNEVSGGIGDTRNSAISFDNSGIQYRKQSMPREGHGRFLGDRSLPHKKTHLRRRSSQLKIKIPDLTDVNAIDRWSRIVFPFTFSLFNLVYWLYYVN
α4β3δ Extra synaptic receptors (GABAA), sequence (O14764 25-452 partner): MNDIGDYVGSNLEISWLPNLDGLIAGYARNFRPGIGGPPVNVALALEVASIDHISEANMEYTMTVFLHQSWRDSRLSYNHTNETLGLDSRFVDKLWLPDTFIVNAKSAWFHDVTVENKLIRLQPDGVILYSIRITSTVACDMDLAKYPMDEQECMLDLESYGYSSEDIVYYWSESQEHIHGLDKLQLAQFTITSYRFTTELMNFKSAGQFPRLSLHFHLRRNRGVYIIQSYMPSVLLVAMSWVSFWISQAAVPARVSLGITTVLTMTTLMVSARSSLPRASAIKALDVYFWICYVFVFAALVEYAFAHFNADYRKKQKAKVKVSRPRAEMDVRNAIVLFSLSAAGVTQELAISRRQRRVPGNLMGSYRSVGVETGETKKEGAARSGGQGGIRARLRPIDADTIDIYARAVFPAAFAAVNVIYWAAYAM
kappa opioid receptor, sequence (P41145 whole entry): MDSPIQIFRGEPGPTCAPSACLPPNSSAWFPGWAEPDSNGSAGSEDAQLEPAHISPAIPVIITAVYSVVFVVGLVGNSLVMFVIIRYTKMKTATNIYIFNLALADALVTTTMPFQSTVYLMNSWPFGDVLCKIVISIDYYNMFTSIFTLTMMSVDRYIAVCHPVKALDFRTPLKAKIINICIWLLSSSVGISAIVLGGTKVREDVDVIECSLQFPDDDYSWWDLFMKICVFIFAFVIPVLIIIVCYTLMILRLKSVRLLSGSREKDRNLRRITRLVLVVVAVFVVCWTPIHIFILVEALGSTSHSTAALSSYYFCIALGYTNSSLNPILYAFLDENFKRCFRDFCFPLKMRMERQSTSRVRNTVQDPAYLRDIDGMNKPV
5-HT2A receptor, sequence (P28223 whole entry, looked up): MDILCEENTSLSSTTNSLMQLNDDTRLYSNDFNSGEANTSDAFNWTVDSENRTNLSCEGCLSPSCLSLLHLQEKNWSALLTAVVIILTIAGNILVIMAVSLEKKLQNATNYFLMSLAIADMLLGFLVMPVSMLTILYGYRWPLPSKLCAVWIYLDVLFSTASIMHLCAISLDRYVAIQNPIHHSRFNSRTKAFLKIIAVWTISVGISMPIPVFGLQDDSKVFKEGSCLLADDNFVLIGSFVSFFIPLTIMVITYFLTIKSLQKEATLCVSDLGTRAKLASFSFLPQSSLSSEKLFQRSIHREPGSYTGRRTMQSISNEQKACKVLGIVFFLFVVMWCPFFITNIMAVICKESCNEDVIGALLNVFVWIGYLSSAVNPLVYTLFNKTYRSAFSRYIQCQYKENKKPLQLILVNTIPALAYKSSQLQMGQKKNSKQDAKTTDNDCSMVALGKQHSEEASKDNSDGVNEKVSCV

C[C@@]1(O)CC[C@@]2(C)[C@@H](CC[C@@H]3[C@@H]2CC[C@]2(C)[C@@H](C(=O)Cn4cc(C#N)cn4)CC[C@@H]32)C1 [CV-10155, 1-[2-[(3R,5S,8R,9S,10S,13S,14S,17S)-3-hydroxy-3,10,13-trimethyl-1,2,4,5,6,7,8,9,11,12,14,15,16,17-tetradecahydrocyclopenta[a]phenanthren-17-yl]-2-oxoethyl]pyrazole-4-carbonitrile]
no-observed-adverse-effect-level dose [1]: 6 mg/kg/day
dose producing an increase in non-REM sleep ([2]; doses 1, 3, 6, 10 mg/kg): ≥ 3 mg/kg
target engagement ([2]; within well-tolerated and efficacious dose ranges): dose-dependent target engagement
activity at the kappa opioid receptor [3]: activity
fold higher efficiency at extra synaptic vs. synaptic channels [4]: 3 fold
preferential modulation of α4β3δ subtype compared to α1β2γ2 subtype ([4]; isomerically pure compositions): preferentially modulate
effect of food consumption on absorption ([5]; 30 mg oral, fed vs fasted): no clinically meaningful effect
Tmax ([5]; 135 mg SAD MTD): 2.83 h
Tmax ([5]; single oral dose, 5-200 mg): 2 to 4 h
half-life ([5]; single oral dose, 5-200 mg): 24 to 26 h
inter-subject variability (CV) of AUC and Cmax ([5]; single oral dose, 5-200 mg): ≤ 30%
dose proportionality of AUC and Cmax ([5]; single oral dose, 5-200 mg dose range): dose-proportional increase
activity at the 5-HT2A receptor [6]: no activity
dose-limiting adverse event [7]: Ataxia
SAD MTD ([7]; single ascending dose): ETX-155 135 mg SAD MTD
adverse events observed at 200 mg ([7]; single oral dose 200 mg, fasted): ataxia, tremor and tachycardia
most common adverse events ([7]; single oral dose, mild to moderate, only observed at the highest doses): Dizziness and somnolence
dose-limiting adverse events ([7]; single oral dose, range of 5-135 mg): No dose-limiting adverse events were observed
maximum safe starting dose (human equivalent dose/10) ([8]; from dog NOAEL): 19/6
maximum safe starting dose (human equivalent dose/10) ([8]; from rat NOAEL): 7.2 mg/day
effect on cardiovascular or respiratory function [9]: does not affect
AUC0-inf [10, 15]: 508-1301
Cmax [10, 15]: 84.4-128
Oral BA [10, 15]: 58.6-92.4
Tmax [10, 15]: 1.5-2^
½ life [10, 15]: 3.66-6.82
Oral BA ([10]; 2 mg/kg, only male subjects): 47.2
Tmax ([10]; 2 mg/kg, only male subjects, in h): 1.7
Cmax ([10]; 2 mg/kg, only male subjects, in ng/mL): 224
AUC0-inf ([10]; 2 mg/kg, only male subjects, in ng·h/mL): 1319
AUC0-inf [10, 16]: 1378-3899
Cmax [10, 16]: 270-440
Oral BA [10, 16]: 53-92.3
½ life [10, 16]: 2.84-4.96
Tmax ([10]; 3 mg/kg, male and female subjects, in h): 1.25-2.50
Oral BA ([10]; 5 mg/kg, only male subjects): 58.1
½ life ([10]; 5 mg/kg, only male subjects): 4.19
Tmax ([10]; 5 mg/kg, only male subjects, in h): 0.83
Cmax ([10]; 5 mg/kg, only male subjects, in ng/mL): 499
AUC0-inf ([10]; 5 mg/kg, only male subjects, in ng·h/mL): 2610
AUC0-inf [10, 17]: 6848-14667
Oral BA [10, 17]: 79.7-100
½ life [10, 17]: 3.23-4.80
Tmax ([10]; 10 mg/kg, male and female subjects, in h): 1.25-2.25
Cmax ([10]; 10 mg/kg, male and female subjects, in ng/mL): 1165
ratio of Cmax/trough on day 7 ([11]; 60 mg daily in the evening in a fed state): 3.47
ratio of Cmax/trough on day 7 ([11]; 60 mg daily in the morning in a fasted state): 6.09
difference in absorption, morning fasted vs evening fed ([11]; 60 mg oral once per day for seven days): no significant difference
Ratio (Cmax/Cmin) ([11]; 60 mg, day 7 MAD, morning dosing): 6.07
AUC0-inf ([11]; plasma, oral, 60 mg): 2900 ng·h/mL
concentration at 7 day ([11]; plasma, oral, 60 mg): 41.5 ng/mL
elimination in urine [12]: < 1 % of the dose
accumulation ratio based on AUC ([12]; once daily administration): approximately 2
daily dose by which steady state was achieved ([12]; once daily administration, visual inspection of mean concentrations): eighth
Tmax ([12]; plasma, Phase 1, after oral administration): 3 to 4 h
half-life ([12]; plasma, oral, Phase 1, both after single and repeat administration, read-out: terminal half-life (converted)): ~40 h
primary effects observed in repeat-dose toxicity ([13]; mid and high dose levels, species not specified (rats and dogs program)): ataxia and prostration
no-observed-adverse-effect-level dose ([13]; rats, 28-day repeat dose): 7.5 mg/kg/day
genetic toxicology findings [14]: no positive findings
